{"source": "patent EP2069533B1", "about": "“GENE […] FOR IDENTIFICATION, MONITORING AND TREATMENT OF MULTIPLE SCLEROSIS” (Life Technologies Corporation, priority 2006, dated 2008)", "tested_on": "IL1B", "assay": "Whole blood response to E. coli filtrate with or without polymyxin B", "format": "cell-based, human", "details": "polymyxin B added to E. coli filtrate", "description": "Figs. 27 through 41 illustrate the use of gene expression panels in early identification and monitoring of infectious disease. These figures plot the response, in expression products of the genes indicated, in whole blood, to the administration of various infectious agents or products associated with infectious agents. In each figure, the gene expression levels are \"calibrated\", as that term is defined herein, in relation to baseline expression levels determined with respect to the whole blood prior to administration of the relevant infectious agent. In this respect the figures are similar in nature to various figures of our below-referenced patent application WO 01/25473 (for example, Fig. 15 therein). The concentration change is shown ratiometrically, and the baseline level of 1 for a particular gene locus corresponds to an expression level for such locus that is the same, monitored at the relevant time after addition of the infectious agent or other stimulus, as the expression level before addition of the stimulus. Ratiometric changes in concentration are plotted on a logarithmic scale. Bars below the unity line represent decreases in concentration and bars above the unity line represent increases in concentration, the magnitude of each bar indicating the magnitude of the ratio of the change. […]\nThe responses were monitored at 2, 6, and 24 hours after administration. […]"}
{"substance": "polymyxin B", "values": [{"measurement": "response of IL1B to E. coli filtrate", "result": "did not affect the response"}]}
